Patent publication US20070258972A1, “Combination of a Histone Deacetylase Inhibitor with a Death Receptor Ligand” (priority 2003, published 2007)

Key:
primary AML blasts = assay: Western analyses of proteins, primary AML blasts; format: cell-based, human
Experimental: Western analyses of DR4, DR5, Apo-2L, FADD, Caspase-8, c-FLIPL & S, BID, Caspase-9, Caspase-3, PARP, XIAP, clAP1, survivin and β-actin are performed using specific anti-sera or monoclonal antibodies according to previously reported protocols. Horizontal scanning densitometry was performed on Western blots by using acquisition into Adobe Photo Shop (Apple, Inc., Cupertino, Calif.) and analysis by the NIH Image Program (U.S. National Institutes of Health, Bethesda, Md.). The expression of β-actin was used as a control.

p21WAF1 promoter DNA = assay: ChIP assay, p21WAF1 promoter; format: cell-based, human; details: Jurkat and SKW 6.4 cells
Experimental: ChIP analysis was performed by a slight modification of a previously described method. Cells are incubated overnight at a density of 0.25×10^8 cells/ ml at 37° C. with 5% CO2. Next day, cells are cultured with 0, 50, 100 or 250 nM of LAQ 824 for 24 hours. Formaldehyde was then added to the cells to a final concentration of 1%, and the cells are gently shaken at room temperature for 10 minutes. Following this, the cells are pelleted, suspended in 1 mL of ice-cold PBS containing protease inhibitors (Complete, Boehringer Mannheim). Cells are again pelleted, re-suspended in 0.5 mL of SDS lysis buffer (1% SDS/1.0 mM EDTA/50 mM Tris.HCl, pH 8.1) and incubated on ice for 20 minutes. Lysates are sonicated with 15-second bursts. Debris was removed from samples by centrifugation for 20 minutes at 15,000×g at 4° C. An aliquot of the chromatin preparation (100 μL) was set aside and designated as Input Fraction. […] Immunoprecipitated DNA (both immunoprecipitation samples and Input) was recovered by phenol/chloroform extraction and ethanol precipitation and analyzed by PCR. […] The optimal reaction conditions for PCR are determined for each primer pair. […] The ratio between the immunoprecipitated DNA and Input DNA was calculated for each treatment and primer set. The fold increases after treatment with LAQ824 was calculated from the indicated ratio.

c-FLIPL mRNA = assay: RT-PCR assay for c-FLIP mRNA levels; format: cell-based; details: 8 hours
Experimental: Total RNA was isolated from cells utilizing a TRIZOL LS reagent (Invitrogen Carlsbad, Calif.). RT-PCR analysis was performed, as previously described. The RNA (1.0 μg) was reverse-transcribed into cDNA by using SuperScript II RT (Invitrogen Carlsbad, Calif.) according to the manufacturer's protocol. For the c-FLIP PCR, the primer sequences are as follows, forward primer: 5′-GCCCGAGCACCGAGACTACG-3′; and reverse primer: 5′-AGG GAC GGD GAG CTG TGA GAC TG-3′. β-actin forward primer: 5′-CTA CM TGA GCT GCG TGT GG-3′; and reverse primer: MG GM GGC TGG MG AGT GC. The PCR reaction containing 0.2 mM concentration of dATP, dCTP, dGTP, dTTP and 200 nM concentration of each c-FLIP primers and 50 nM of each β-actin primers, 1.5 mM of MgCl2, and 10×PCR buffer containing Tris-HCL (pH 8.0), 500 mM KCL and 1 U of Tag polymerase (Invitrogen Carlsbad, Calif.). The reaction is performed at 95° C. for 5 minutes, and is followed by 30 cycles of de-naturating at 95° C. for 45 seconds, annealing at 52° C. for 45 seconds and the extension at 72° C. for one minute. The PCR products are separated on a 2% agarose/eithidium bromide gel. The size of the amplified products was 395 bases pairs for the c-FLIP and 527 base pairs for β-actin product, respectively.

DR5 [1] = assay: DR5 expression on the cell membrane by flow cytometry, primary AML sample; format: cell-based, human
HDAC = details: 5-250 nM; HeLa cell nuclear extracts; previously reported; cited from earlier work
DR5 [2] = assay: DR5 cell-membrane expression by flow cytometry, Jurkat cells; format: cell-based, human

## O=C(/C=C/c1ccc(CN(CCO)CCc2c[nH]c3ccccc23)cc1)NO [LAQ824, N-hydroxy-3-[4-[[(2-hydroxyethyl)[2-(1H-indol-3-yl)ethyl]-amino]methyl]phenyl]-2E-2-propenamide]
Primary AML blasts
  DR4 and DR5 levels: increases
  levels of FLIPL and c-FLIPS: down-regulates
Primary AML blasts; 100 nM or 250 nM, 24 hours
  acetylation of histones H3 and H4: induces
p21WAF1 promoter DNA
  association of p21WAF1 promoter DNA with acetylated histones: increased
c-FLIPL mRNA
  inhibition of the mRNA level of c-FLIPL: 75%
DR5 [1]; 100 nM LAQ824, baseline 17.5%
  DR5 expression on the cell membrane: 33.2 % of cells
DR5 [1]; 250 nM LAQ824, baseline 17.5%
  DR5 expression on the cell membrane: 62.4 % of cells
HDAC
  in vitro HDAC activity: inhibits the in vitro HDAC activity in a dose-dependent manner
DR5 [2]
  cell-membrane expression of DR5: induces
